Experimental data reported in patent publication US20220280507A1, “USES OF 5-METHYLTETRAHYDROFOLATE AND ITS COMPOSITION” (Lianyungang Jinkang Hexin Pharmaceutical Co., Ltd., priority 2019, published 2022).

Legend:
IL-1β [1] = assay: LPS-induced inflammatory response in astrocytes, IL-1β release (ELISA); format: cell-based, Kunming mice; details: culture supernatant, LPS 1 μg·ml-1 + substance 10 μg·ml-1, 24 h, n=6
Excerpt: (§1) Experiment 9 Inhibition of 5-Methyltetrahydrofolate and Curcumin on LPS-Induced Inflammatory Response in Astrocytes
(§2) The cerebral cortex of Kunming mice at 1˜2 d was taken out under aseptic conditions, washed 3 times with cold PBS after removing residual meninges and blood vessels, prepared into single cell suspension by blowing, centrifuged, the supernatant was discarded, and the precipitant was resuspended in AST basic medium (high-sugar DMEM containing 10% FBS). The suspension was inoculated into a culture flask coated with poly-L-lysine (0.1 mg/ml), and cultured in a CO2 incubator. After 24 h, tissue debris and non-adherent cells were removed by replacing the medium. Afterwards, the medium was replaced every 3 days until the cells reached 80% confluence, then the flask was placed on a constant temperature rotary shaker, where the suspension was centrifuged at 180 r/min, 37° C. for 18 h to remove oligodendrocytes and microglia from the upper layer. Then trypsin digestion was used for subculture. […]
(§3) LPS (1 μg·ml-1), LPS (1 μg·ml-1)+curcumin (10 μg·ml-1), LPS (1 μg·ml-1)+5-MTHF-Ca (10 μg·ml-1); experimental group: LPS (1 μg·ml-1)+curcumin (5 μg·ml-1)+5-MTHF-Ca (5 μg·ml-1). After 24 h, the culture supernatant was collected, and the cytokines IL-6, IL-1β and TNF-α were detected by ELISA.

TNF-α [2] = assay: LPS-induced inflammatory response in astrocytes, TNF-α release (ELISA); format: cell-based, Kunming mice; details: culture supernatant, LPS 1 μg·ml-1 + substance 10 μg·ml-1, 24 h, n=6
Excerpt: as §1, §2, §3

IL-6 = assay: LPS-induced inflammatory response in astrocytes, IL-6 release (ELISA); format: cell-based, Kunming mice; details: culture supernatant, LPS 1 μg·ml-1 + substance 10 μg·ml-1, 24 h, n=6
Excerpt: as §1, §2, §3

hyperlipemia rats [3] = assay: Hyperlipemia rats (high-fat diet), body mass, liver mass, liver index, NASH pathology; format: in vivo, SD rats; details: positive drug group, 60 d
Procedure: (§4) Experiment 5 Effect of 5-Methyltetrahydrofolate Calcium on Hyperlipemia Rats
(§5) 7 weeks later, one rat in the control group and one rat in the model group were sacrificed for liver tissue section to check fatty degeneration of hepatocytes (see Table 7) to confirm whether modeling was successful. The remaining 40 modeling rats were randomly divided into low-dose (1 mg·Kg−1) group, medium-dose (2 mg·Kg−1) group, high-dose (4 mg·Kg−1) group, positive drug group, and model group.
(§6) Bicyclol (place of origin: Beijing Xiehe Pharmaceutical Factory, specification: 25 mg/tablet, batch number: H20040467) was used as a positive drug.
(§7) After successful modeling, rats were administered drugs with dosages as prescribed for 60 consecutive days, continued to be fed with high-fat diet, and dissected on the 61st day. Liver was harvested and weighed, liver index was calculated, right lobe tissue was taken to prepare frozen sections, and fat staining was performed with Sudan III for pathological scoring according to guidelines for diagnosis and treatment of NAFLD. Another liver tissue was taken to prepare homogenate, and total cholesterol (TC), triglyceride (TG), malondialdehyde (MDA), and superoxide dismutase (SOD) in serum were detected.

IL-1β [4] = assay: Alcoholic fatty liver model, IL-1β in hippocampus tissue (ELISA); format: in vivo, SD rats; details: liquor model, 50 mg·kg−1·d−1 ig 60 d, n=16
Procedure: (§8) According to their weight, they were randomly divided into vehicle control group (purified water, ig), model control group (liquor, 10 ml·Kg−1), positive control group (bicyclol, 50 mg·Kg−1, ig), folic acid calcium salt high-dose group (4 mg·Kg−1), folic acid calcium salt medium-dose group (2 mg·Kg−1), folic acid calcium salt low-dose group (1 mg·Kg−1), in half female and half male, and 16 rats in each group. Purified water was used as a negative control, and bicyclol (place of origin: Beijing Xiehe Pharmaceutical Factory, specification: 25 mg/tablet, batch number: H20040467) was used as a positive control drug. Route of administration: all were administered by oral gavage. Dosage of administration: 1 mg·Kg−1, 2 mg·Kg−1, and 4 mg·Kg−1. Frequency of administration: once a day for 60 consecutive days.
(§9) Method of administration: administration started at prescribed doses on the day of modeling for 60 consecutive days and ended at the 60th day. At the same time, rats in each group were weighed every other week during administration period to monitor their body weight changes. On the 61st day, rats were dissected and serum was collected for determination of triglyceride (TG), total cholesterol (TC), malondialdehyde (MDA), superoxide dismutase (SOD) and liver histopathologic examination. The brain tissue of rats was taken out, and hippocampus tissue was separated on ice plate, prepared to homogenate with a mass fraction of 10% with purified water, then the homogenate was centrifuged to obtain supernatant. ELISA was used to detect the levels of inflammatory factors TNF-α and IL-1β in hippocampus tissue with continuous spectrum scanning microplate reader.

[5] = Alcoholic fatty liver model, body weight during administration period; format: in vivo, SD rats; details: liquor model, 50 mg·kg−1·d−1 ig
Procedure: as §8, §9

[6] = tested on: alcoholic liver damage and fatty liver; assay: Alcoholic fatty liver model, serum TG, TC, SOD, MDA and liver histopathology; format: in vivo, SD rats
Procedure: as §8, with “96 SPF-grade SD rats were chosen in half female and half male with an average weight of 176-220 g at the beginning of the experiment. According” for “According”, “days. Erguotou (batch number: 201603092, specification: 2L, place of origin: Beijing Shunxin Agriculture Co., Ltd.) model establishing method: gavage with diluted 56-degree Erguotou twice a day for 60 consecutive days.” for “days.”
as §9

hyperlipemia rats [7] = assay: Hyperlipemia rats (high-fat diet), biochemical indexes TG, TC, SOD, MDA; format: in vivo, SD rats; details: 50 mg·kg−1·d−1, 60 d
Procedure: as §4, §5, §6, §7

TNF-α [8] = assay: Alcoholic fatty liver model, TNF-α in hippocampus tissue (ELISA); format: in vivo, SD rats; details: liquor model, 50 mg·kg−1·d−1 ig 60 d, n=16
Procedure: as §8, §9

[9] = day 61, liquor model, 50 mg·kg−1·d−1 ig 60 d, n=16
[10] = serum day 61, liquor model, 50 mg·kg−1·d−1 ig 60 d, n=16

COc1cc(/C=C/C(=O)CC(=O)/C=C/c2ccc(O)c(OC)c2)ccc1O [Cur, curcumin, reference compound]
IL-1β (IL-1β [1]): 742.12 ± 10.33 pg/mL
TNF-α (TNF-α [2]): 492.32 ± 8.92 pg/mL
IL-6 (IL-6): 1003.97 ± 60.33 pg/mL

COC(=O)c1cc(OC)c2c(c1-c1c(CO)cc(OC)c3c1OCO3)OCO2 [bicyclol, reference compound]
Body mass (hyperlipemia rats [3]; 8 cases): 453.8 ± 34.7 g
Liver index (hyperlipemia rats [3]; 8 cases): 3.2 ± 0.4
Liver mass (hyperlipemia rats [3]; 8 cases): 14.6 ± 4.5 g
Pathological state (NASH) (hyperlipemia rats [3]; of 8 cases): 2 cases
IL-1β in hippocampus tissue (IL-1β [4]): 73.93 ± 9.37 μg · g^−1 prot
Body weight ([5]; Week 0, n=16): 188.19 g
Body weight ([5]; Week 1, n=16): 211.95 g
Body weight ([5]; Week 2, n=16): 279.31 g
Body weight ([5]; Week 3, n=16): 292.58 g
Body weight ([5]; Week 4, n=16): 317.80 g
Body weight ([5]; Week 5, n=16): 313.19 g
Body weight ([5]; Week 6, n=16): 333.57 g
Body weight ([5]; Week 7, n=16): 360.01 g
Body weight ([5]; Week 8, n=16): 380.37 g
MDA [6, 9]: 70.41 ± 20.33 nmol/mgprot
SOD [6, 9]: 167.47 ± 18.91^ U/mgprot
Pathological examination of liver ([6]; liquor model, positive drug group 50 mg·Kg−1 ig 60 d): no hyperplasia of interstitial connective tissue and fatty degeneration of hepatocytes
TC [6, 10]: 1.45 ± 0.43 mmol/L
TG [6, 10]: 1.03 ± 0.34 mmol/L
MDA (hyperlipemia rats [7]): 72.39 ± 19.23 nmol/mgprot
SOD (hyperlipemia rats [7]): 157.41 ± 16.45^ U/mgprot
TC (hyperlipemia rats [7]): 1.45 ± 0.63 mmol/L
TG (hyperlipemia rats [7]): 1.23 ± 0.35 mmol/L
TNF-α in hippocampus tissue (TNF-α [8]): 286.32 ± 43.79.* μg · g^−1 prot
